From patent US5807837A, “Composition and method for the treatment or prophylaxis of viral infections using modified oligodeoxyribonucleotides” (Sankyo Company, Limited, priority 1993, dated 1998) come the findings set out here.

The data set deals with non-HIV-1 infected MT-4 cells. Kind of data set: Cytotoxicity: inhibition of multiplication of non-HIV-1 infected MT-4 cells (MTT method). In kind it is cell-based. The conditions noted are these: 6 days culture, 50% inhibition of multiplication. On the procedure: HIV-1 infected MT-4 cells and non-HIV-1 infected MT-4 cells were suspended in serum culture media so that a concentration of […] cells/ml of each was attained. One hundred μl of a solution of stepwise diluted sample compound (dissolved in serum culture media), prepared in advance, was placed in each well of […] microtiter plates. Then, 100 μl of each of the above-mentioned cell suspensions was added to each well of microtiter plates, and their cells were cultured for 6 days in the presence of 5% carbon dioxide gas.
As a control, HIV-1 infected MT-4 cells and non-HIV-1 infected MT-4 cells in which no sample compound was added were cultured in the same manner.
After the cultivation, live cell number was measured based on the MTT(3-(4,5-dimethylthiazole-2-yl)-2,5-diphenyltetrazolium bromide) method (L. M. Green et al., J. Immunol, Methods, 70, 257-268(1984)). Then the cytopathic activity of HIV-1 was measured. With the cytopathic activity of HIV-1 infected MT-4 cells to which no sample compound was added as 100%, and the cytopathic activity of […] MT-4 cells to which no sample compound was added as 0%, the concentration of the specimen which inhibited the cytopathic activity of HIV-1 infected MT-4 cells by 50(IC50) was calculated. The cytotoxicity of the sample compound was determined as that concentration which inhibited the multiplication of non-HIV-1 infected MT-4 cells by 50% (CC50).
(In general: Tetrazolium assays rely on reduction of a dye to a coloured formazan, in cell work by metabolically active cells.)
The CC50 is the concentration that lowers cell viability or growth by half. Lower therefore signals harm at low concentration. Substance DMT--O--GTGGGAGG--OH [Example 77] displayed a CC50 of over 100.0 µg/mL.

The substance DMT--O--CGGGT--OH [Example 43] showed a CC50 of 100.0 µg/mL.

Substance DMT--O--TGGGAGGT--OH [Example 72] returned a CC50 of over 100.0 µg/mL.

DMT--O--GGGCGGGGC--OH [Example 70] returned a CC50 of 60.0 µg/mL.

Take DMT--O--AATGGGAGG--OH [Example 81]: the CC50 was over 100.0 µg/mL.

In turn, DMT--O--TGGGAGG--OH [Example 30] displayed a CC50 of over 100.0 µg/mL.

In turn, DMT--O--TGGGA--OH [Example 27] returned a CC50 of 95.0 µg/mL.

In turn, DMT--O--CGGGG--OH [Example 45] displayed a CC50 of over 100.0 µg/mL.

DMT--O--CGGGAGG--OH [Example 29] returned a CC50 of over 100.0 µg/mL.

Substance DMT--O--CGCGG--OH [Example 48] returned a CC50 of over 100.0 µg/mL.

DMT--O--mCGGGAGG--OH [Example 34] came in with a CC50 of over 100.0 µg/mL.

With DMT--O--TGGGC--OH [Example 58], the CC50 amounted to 50.0 µg/mL.

DMT--O--TGGGCGCAG--OH [Example 73] came in with a CC50 of over 100.0 µg/mL.

In the case of DMT--O--TGGGAGA--OH [Example 80], the 50% cytotoxic concentration (CC50) was over 100.0 µg/mL.

As for DMT--O--TGmCGAGG--OH [Example 76], the CC50 was over 100.0 µg/mL.

In the case of DMT--O--CCG--OH [Example 74], the CC50 was over 100.0 µg/mL.

On to DMT--O--TGGGG--OH [Example 28], for which the CC50 was over 100.0 µg/mL.

In turn, DMT--O--GGGGAGG--OH [Example 33] gave a CC50 of over 100.0 µg/mL.

Substance DMT--O--mCGmCGAGG--OH [Example 35] came in with a CC50 of over 100.0 µg/mL.

Regarding DMT--O--TGGG--OH [Example 26], the CC50 was 80.0 µg/mL.

Substance DMT--O--TGG--OH [Example 78] displayed a CC50 of over 50.0 µg/mL.

DMT--O--TAGGAGG--OH [Example 71] yielded a CC50 of 37.0 µg/mL.

With DMT--O--CTGGGAGG--OH [Example 37], the CC50 was over 100.0 µg/mL.

As for DMT--O--TCGGAGG--OH [Example 75], the CC50 turned out to be 40.0 µg/mL.

Turning to DMT--O--TGGGT--OH [Example 57], the CC50 was 100.0 µg/mL.

Regarding DMT-O-TGGGAG-OH [Example 25], the CC50 is over 100.0 µg/mL.

As to DMT--O--TTGGGAGG--OH [Example 36], the CC50 is 100.0 µg/mL.

Take DMT--O--TGCGAGG--OH [Example 32]: the CC50 is over 100.0 µg/mL.

With DMT--O--TGGGAmGG [Example 79], the cytotoxic concentration (CC50) was over 100.0 µg/mL.

The substance DMT--O--TTGGAGG--OH [Example 31] came in with a CC50 of 90.0 µg/mL.
